Read-outs that look alike come from different tables or passages of the source.

In assay [1] the target is T1, MOR (Rattus norvegicus, UniProt P33535).
T1 construct: from tissue
Briefly: Opioid receptor binding, MOR, rat brain membranes.

For assay [2], the target named is T2, KOR (Cavia porcellus, UniProt P41144).
T2 construct: from tissue
Kind of assay: Opioid receptor binding, KOR, guinea pig brain membranes.

Assay [3] concerns the target T3, DOR (Rattus norvegicus, UniProt P33533).
T3 construct: from tissue
Briefly: Opioid receptor binding, DOR, rat brain membranes.

[4] abbreviates: Binding Ki MOR, Table 1-6, rat brain membranes.
The mark [5] stands for this setting: Binding Ki MOR, Table 2-6, rat brain membranes.
[6] abbreviates: Binding Ki KOR, Table 1-6, guinea pig brain membranes.
[7] abbreviates: Binding Ki KOR, Table 2-6, guinea pig brain membranes.
[8] abbreviates: Binding Ki DOR, Table 1-6, rat brain membranes.
The mark [9] stands for this setting: Binding Ki DOR, Table 2-6, rat brain membranes.
Setting [10] is: Binding Ki (nM) MOR, in vitro binding assay, rat brain membranes.
The mark [11] stands for this setting: Binding Ki MOR, Table 1-4, rat brain membranes.
The mark [12] stands for this setting: Binding Ki (nM) KOR, in vitro binding assay, guinea pig brain membranes.
Setting [13] is: Binding Ki KOR, Table 1-4, guinea pig brain membranes.
Where [14] appears, read: Binding Ki (nM) DOR, in vitro binding assay, rat brain membranes.
The mark [15] stands for this setting: Binding Ki DOR, Table 1-4, rat brain membranes.
Where [16] appears, read: in vitro binding assay, rat brain membranes, read-out: Binding Ki (nM) MOR.
[17] abbreviates: in vitro binding assay, guinea pig brain membranes, read-out: Binding Ki (nM) KOR.
The mark [18] stands for this setting: in vitro binding assay, rat brain membranes, read-out: Binding Ki (nM) DOR.

T3 sequence (P33533 whole entry): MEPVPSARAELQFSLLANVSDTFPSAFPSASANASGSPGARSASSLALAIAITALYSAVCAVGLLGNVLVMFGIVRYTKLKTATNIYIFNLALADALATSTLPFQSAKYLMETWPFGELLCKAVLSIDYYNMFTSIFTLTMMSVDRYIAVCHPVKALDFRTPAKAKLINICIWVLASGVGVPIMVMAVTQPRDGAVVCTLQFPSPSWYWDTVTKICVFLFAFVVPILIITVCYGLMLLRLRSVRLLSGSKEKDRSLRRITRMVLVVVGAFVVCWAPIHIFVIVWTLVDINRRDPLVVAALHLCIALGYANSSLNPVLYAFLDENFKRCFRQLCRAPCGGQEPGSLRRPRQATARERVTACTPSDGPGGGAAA
T2 sequence (P41144 whole entry): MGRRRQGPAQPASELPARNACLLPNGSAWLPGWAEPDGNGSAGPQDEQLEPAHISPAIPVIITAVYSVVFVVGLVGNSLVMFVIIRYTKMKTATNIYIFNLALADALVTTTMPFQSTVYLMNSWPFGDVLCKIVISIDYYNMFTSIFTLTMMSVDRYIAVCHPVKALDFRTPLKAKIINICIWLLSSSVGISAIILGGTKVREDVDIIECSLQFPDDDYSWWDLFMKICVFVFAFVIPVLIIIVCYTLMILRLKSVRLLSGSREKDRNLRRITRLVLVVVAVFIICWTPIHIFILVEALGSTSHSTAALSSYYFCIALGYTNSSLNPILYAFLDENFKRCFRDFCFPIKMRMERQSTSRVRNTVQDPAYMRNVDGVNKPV
T1 sequence (P33535 whole entry): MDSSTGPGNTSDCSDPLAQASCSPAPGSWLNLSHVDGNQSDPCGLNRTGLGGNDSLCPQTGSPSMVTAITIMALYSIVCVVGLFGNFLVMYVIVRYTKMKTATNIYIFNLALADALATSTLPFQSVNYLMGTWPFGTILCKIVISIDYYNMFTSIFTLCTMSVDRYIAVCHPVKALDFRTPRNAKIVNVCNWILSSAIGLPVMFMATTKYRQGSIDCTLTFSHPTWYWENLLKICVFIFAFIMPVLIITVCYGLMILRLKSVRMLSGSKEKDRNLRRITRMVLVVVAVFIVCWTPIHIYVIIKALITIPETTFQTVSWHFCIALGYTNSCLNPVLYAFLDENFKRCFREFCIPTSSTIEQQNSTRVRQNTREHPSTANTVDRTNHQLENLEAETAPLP

Consider `COC12CCC(NC(CCC(=O)O)C(=O)O)C3Oc4c(O)ccc5c4C31CCN(CC1CC1)C2C5` (stereo not drawn) [Compound 74], for which the inhibitory constant (Ki) (in general, the dissociation constant of the complex between target and ligand, obtained from inhibition or displacement) was determined as 1.93 nM in assay [1] (setting [4]); 1.93 nM in assay [1] (setting [5]); 6.66 nM in assay [2] (setting [6]); 6.66 nM in assay [2] (setting [7]); 3.61 nM in assay [3] (setting [8]); 3.61 nM in assay [3] (setting [9]).

Consider `CO[C@@]12CC[C@@H](N[C@@H](CCSC)C(=O)O)[C@@H]3Oc4c(O)ccc5c4[C@@]31CCN(C)[C@@H]2C5` [Compound 24], for which the Ki stood at 3.88 nM in assay [1] (setting [10]); 3.88 nM in assay [1] (setting [11]); 468 nM in assay [2] (setting [12]); 468 nM in assay [2] (setting [13]); 2.4 nM in assay [3] (setting [14]); 2.4 nM in assay [3] (setting [15]).

Consider `CO[C@@]12CC[C@H](N[C@H](C(=O)O)[C@@H](C)O)[C@@H]3Oc4c(O)ccc5c4[C@@]31CCN(C)[C@@H]2C5` [Compound 34], for which the Ki in assay [1] (setting [10]) came out at 1.03 nM; in assay [1] (setting [11]), 1.03 nM; in assay [2] (setting [12]), 120 nM; in assay [2] (setting [13]), 120 nM; in assay [3] (setting [14]) it was 4.13 nM; in assay [3] (setting [15]), 4.13 nM.

`CO[C@@]12CC[C@@H](N[C@@H](Cc3ccc(O)cc3)C(=O)OC(C)(C)C)[C@@H]3Oc4c(O)ccc5c4[C@@]31CCN(C)[C@@H]2C5` [10-t-Bu ester]: the Ki stood at 1.53 nM in assay [1] (setting [16]), 184 nM in assay [2] (setting [17]) and 1.88 nM in assay [3] (setting [18]).

In the case of `CO[C@@]12CC[C@H](NCC(=O)OCc3ccccc3)[C@@H]3Oc4c(O)ccc5c4[C@@]31CCN(C)[C@@H]2C5` [HS730-benzyl ester], the values for the Ki in assay [1] (setting [10]), in assay [2] (setting [12]) and in assay [3] (setting [14]) were 0.19 nM, 0.47 nM and 0.91 nM, respectively.

On to `CO[C@@]12CC[C@@H](N[C@@H](C)C(=O)O)[C@@H]3Oc4c(O)ccc5c4[C@@]31CCN(CC1CC1)[C@@H]2C5` [Compound 72], for which the Ki is 2.13 nM in assay [1] (setting [4]); 2.13 nM in assay [1] (setting [5]); 11.5 nM in assay [2] (setting [6]); 11.5 nM in assay [2] (setting [7]); 5.8 nM in assay [3] (setting [8]); 5.8 nM in assay [3] (setting [9]).

Regarding `CO[C@@]12CC[C@H](NCCC(=O)OC(C)(C)C)[C@@H]3Oc4c(O)ccc5c4[C@@]31CCN(C)[C@@H]2C5` [21-t-Bu ester], the Ki in assay [1] (setting [10]) worked out at 0.31 nM; in assay [2] (setting [12]), 13.5 nM; in assay [3] (setting [14]) it was 0.83 nM.

`CO[C@@]12CC[C@H](NCCCC(=O)OC(C)(C)C)[C@@H]3Oc4c(O)ccc5c4[C@@]31CCN(CC1CC1)[C@@H]2C5` [65-tBu ester]: the Ki in assay [1] (setting [5]) was 0.46 nM; in assay [2] (setting [7]), 0.6 nM; in assay [3] (setting [9]), 2.69 nM.

As to `CCO[C@@]12CC[C@@H](NCC(=O)OC(C)(C)C)[C@@H]3Oc4c(O)ccc5c4[C@@]31CCN(C)[C@@H]2C5` [6-t-Bu ester], the values for the Ki in assay [1] (setting [16]), in assay [2] (setting [17]) and in assay [3] (setting [18]) were 0.81 nM, 34.1 nM and 0.57 nM, respectively.

Consider `CO[C@@]12CC[C@H](N[C@@H](Cc3ccccc3)C(=O)OC(C)(C)C)[C@@H]3Oc4c(O)ccc5c4[C@@]31CCN(C)[C@@H]2C5` [3-t-Bu ester], for which the Ki in assay [1] (setting [16]) worked out at 0.5 nM; in assay [2] (setting [17]), 32.5 nM; in assay [3] (setting [18]), 0.93 nM.

`CC(C)(C)OC(=O)[C@H](Cc1ccccc1)N[C@@H]1CC[C@@]2(O)[C@H]3Cc4ccc(O)c5c4[C@@]2(CCN3CC2CC2)[C@H]1O5` [60-tBu ester]: the Ki is 5.49 nM in assay [1] (setting [5]), 17.6 nM in assay [2] (setting [7]) and 1.12 nM in assay [3] (setting [9]).

On to `CO[C@@]12CC[C@H](N[C@H](C(=O)N[C@@H](Cc3ccc(O)cc3)C(=O)OC(C)(C)C)C(C)C)[C@@H]3Oc4c(O)ccc5c4[C@@]31CCN(C)[C@@H]2C5` [32-t-Bu ester], for which the Ki in assay [1] (setting [10]) came to 0.11 nM; in assay [2] (setting [17]), 3.5 nM; in assay [3] (setting [18]) it was 0.17 nM.

For `CO[C@@]12CC[C@H](N[C@@H](CCSC)C(=O)O)[C@@H]3Oc4c(O)ccc5c4[C@@]31CCN(C)[C@@H]2C5` [Compound 23], the Ki in assay [1] (setting [10]) was 0.93 nM; in assay [1] (setting [11]), 0.93 nM; in assay [2] (setting [12]), 109 nM; in assay [2] (setting [13]), 109 nM; in assay [3] (setting [14]) it was 4.03 nM; in assay [3] (setting [15]) it was 4.03 nM.

For the origin of these results see patent US20170217976A1, “6-(AMINO ACID)-MORPHINAN DERIVATIVES IN COMBINATION WITH PERMEATION […] FOR USE AS AN ORALLY, […], TRA[…] NASALLY AD[…]” (C[…], priority 2014, published 2017).
